From ChEMBL document CHEMBL1201862, “PubChem BioAssay data set” (2004)
Activity calls are given as the source filed them.

Experiments:
[1] = intracellular Trypanosoma cruzi inhibitors in host cells – cell-based, plate reader, cherry-pick samples, set 3, dose response (AID 651818); type: functional;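 further: compounds incubated with infected cells for about four days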
[2] = target: Paired box protein Pax-8 (Homo sapiens, UniProt Q06710); experiment: inhibitors of PAX8-driven TPO luciferase reporter, dose response, RMG-I cells, cherry-pick (AID 687027); type: functional, cell-based;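 further: luciferase reporter driven by Pax8 target thyroperoxidase promoter measured by SteadyGlo luminescence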
Sequence of Paired box protein Pax-8 (Q06710 whole entry): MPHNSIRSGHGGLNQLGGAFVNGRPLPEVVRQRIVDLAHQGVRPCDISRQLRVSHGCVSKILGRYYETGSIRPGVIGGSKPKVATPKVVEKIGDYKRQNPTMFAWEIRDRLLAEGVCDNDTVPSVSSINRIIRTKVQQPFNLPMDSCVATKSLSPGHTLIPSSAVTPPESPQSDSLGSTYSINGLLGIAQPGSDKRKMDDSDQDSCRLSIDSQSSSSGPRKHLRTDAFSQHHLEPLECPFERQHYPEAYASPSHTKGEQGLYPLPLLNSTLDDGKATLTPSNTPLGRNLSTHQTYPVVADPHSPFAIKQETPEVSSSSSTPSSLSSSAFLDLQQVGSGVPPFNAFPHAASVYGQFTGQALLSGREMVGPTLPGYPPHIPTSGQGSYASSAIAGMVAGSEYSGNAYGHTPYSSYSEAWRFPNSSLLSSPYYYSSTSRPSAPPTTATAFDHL

[3] = NIH:OVCAR-3 ovarian cancer cell cytotoxicity, dose response, PAX8 inhibitor project, plate reader, dry powder samples (AID 743044); type: functional, cell-based
[4] = cytotoxicity in OVCAR8 ovarian cancer cells, dose response, PAX8 project, cell-based, plate reader, dry powder samples (AID 743197); type: functional; settings: OVCAR-8
[5] = inhibitors of clade B AD8 Env fusion, dose response, cell-based, cherry-pick (AID 652062); type: functional;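 further: luciferase signal from cell-cell fusion driven by HIV-1 clade B AD8 Env; potency is for inhibitors of fusion seen as a drop in luminescence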
[6] = inhibitors of HIV Env-driven cell fusion, dose response, cherry-pick (AID 652057); type: functional, cell-based
[7] = target: Cytochrome P450 3A4 (Homo sapiens, UniProt P08684); settings: Potency;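 further: confirmatory qHTS run detecting inhibitors and substrates of CYP3A4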
Sequence of Cytochrome P450 3A4 (P08684 whole entry): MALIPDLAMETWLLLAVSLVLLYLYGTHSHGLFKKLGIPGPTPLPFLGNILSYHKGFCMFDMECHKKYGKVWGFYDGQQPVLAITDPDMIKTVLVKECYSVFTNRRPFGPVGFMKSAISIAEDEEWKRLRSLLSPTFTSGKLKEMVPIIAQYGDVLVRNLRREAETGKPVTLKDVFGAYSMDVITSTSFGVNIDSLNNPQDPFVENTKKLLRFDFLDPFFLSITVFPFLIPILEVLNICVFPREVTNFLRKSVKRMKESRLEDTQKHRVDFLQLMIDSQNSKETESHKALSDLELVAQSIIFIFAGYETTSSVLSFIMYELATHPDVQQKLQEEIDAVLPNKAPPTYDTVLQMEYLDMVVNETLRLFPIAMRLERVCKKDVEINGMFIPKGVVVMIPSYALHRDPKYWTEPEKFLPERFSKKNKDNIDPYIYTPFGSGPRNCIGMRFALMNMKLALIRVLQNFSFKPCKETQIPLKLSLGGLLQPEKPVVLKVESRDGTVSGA

[8] = target: T1, Short transient receptor potential channel 4 (Mus musculus, UniProt Q9QUQ5); experiment: mouse TRPC4 channel inhibitors, dose response, cell-based, HEK293 TRPC4/mu-opioid, Fluo-4 calcium (AID 434942); type: functional;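 further: potency of inhibitors blocking the TRPC4 calcium response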
T1 sequence (Q9QUQ5 whole entry): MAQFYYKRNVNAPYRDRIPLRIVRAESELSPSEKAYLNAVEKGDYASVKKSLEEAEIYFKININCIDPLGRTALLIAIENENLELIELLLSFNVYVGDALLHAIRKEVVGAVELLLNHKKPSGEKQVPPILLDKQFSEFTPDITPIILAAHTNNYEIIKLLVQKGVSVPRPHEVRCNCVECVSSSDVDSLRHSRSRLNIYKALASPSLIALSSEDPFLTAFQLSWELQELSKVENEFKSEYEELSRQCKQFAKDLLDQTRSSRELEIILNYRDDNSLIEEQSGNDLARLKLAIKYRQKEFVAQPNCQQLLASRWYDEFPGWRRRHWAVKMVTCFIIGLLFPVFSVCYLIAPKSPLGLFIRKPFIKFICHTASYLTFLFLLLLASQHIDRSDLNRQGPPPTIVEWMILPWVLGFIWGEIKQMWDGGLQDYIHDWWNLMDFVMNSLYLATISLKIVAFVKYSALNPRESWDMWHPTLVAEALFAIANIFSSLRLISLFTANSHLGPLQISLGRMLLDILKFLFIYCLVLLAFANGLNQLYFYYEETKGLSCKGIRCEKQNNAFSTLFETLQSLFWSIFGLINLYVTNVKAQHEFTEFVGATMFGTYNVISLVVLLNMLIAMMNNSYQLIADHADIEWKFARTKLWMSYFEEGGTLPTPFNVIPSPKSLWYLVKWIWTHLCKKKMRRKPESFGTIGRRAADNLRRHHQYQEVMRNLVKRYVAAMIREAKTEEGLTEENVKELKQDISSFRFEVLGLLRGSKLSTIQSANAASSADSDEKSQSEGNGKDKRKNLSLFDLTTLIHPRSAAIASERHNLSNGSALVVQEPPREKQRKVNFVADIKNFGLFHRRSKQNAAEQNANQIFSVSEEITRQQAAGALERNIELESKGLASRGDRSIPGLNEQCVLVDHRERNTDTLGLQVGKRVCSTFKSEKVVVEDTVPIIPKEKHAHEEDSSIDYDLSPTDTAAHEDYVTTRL

[9] = target: T2, Polyadenylate-binding protein 1 (Homo sapiens, UniProt P11940); experiment: PABP1 MLLE–PAM2 interaction inhibitors, dose response, miRNA deadenylation inhibitor project, biochemical, fluorescence polarization, Cy5-PAM2 peptide, secondary (AID 602260); type: functional; settings: read-out: IC50_Mean
T2 sequence (P11940 whole entry): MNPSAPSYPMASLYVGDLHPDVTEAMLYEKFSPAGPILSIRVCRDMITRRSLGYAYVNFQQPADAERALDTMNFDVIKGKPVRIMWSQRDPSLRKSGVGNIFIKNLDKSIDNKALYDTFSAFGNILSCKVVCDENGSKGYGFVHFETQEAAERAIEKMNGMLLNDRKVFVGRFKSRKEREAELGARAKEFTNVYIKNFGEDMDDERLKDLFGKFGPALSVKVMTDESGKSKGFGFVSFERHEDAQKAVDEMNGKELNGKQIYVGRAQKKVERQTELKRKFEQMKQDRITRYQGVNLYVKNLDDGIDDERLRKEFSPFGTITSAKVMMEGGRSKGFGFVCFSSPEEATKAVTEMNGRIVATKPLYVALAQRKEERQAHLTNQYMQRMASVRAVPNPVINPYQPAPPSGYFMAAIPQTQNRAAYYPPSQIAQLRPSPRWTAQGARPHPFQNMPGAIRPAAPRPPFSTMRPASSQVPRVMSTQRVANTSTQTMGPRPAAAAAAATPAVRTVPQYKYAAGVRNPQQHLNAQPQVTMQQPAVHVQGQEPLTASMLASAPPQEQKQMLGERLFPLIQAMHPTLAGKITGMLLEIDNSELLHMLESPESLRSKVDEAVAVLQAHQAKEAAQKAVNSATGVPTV

[10] = target: T2, Polyadenylate-binding protein 1; experiment: PABP1 MLLE–PAM2 binding inhibitor potency, dose response, biochemical, fluorescence polarization, FITC-PAM2 peptide (AID 602259); type: functional; settings: read-out: IC50_Mean
[11] = target: Genome polyprotein (dengue virus type 2, UniProt P29990); experiment: Dengue-2 NS5 methyltransferase inhibitors, primary screen, biochemical, confirmation dose response (AID 588689); type: functional
Sequence of Genome polyprotein (P29990 2492-3391 limits assumed): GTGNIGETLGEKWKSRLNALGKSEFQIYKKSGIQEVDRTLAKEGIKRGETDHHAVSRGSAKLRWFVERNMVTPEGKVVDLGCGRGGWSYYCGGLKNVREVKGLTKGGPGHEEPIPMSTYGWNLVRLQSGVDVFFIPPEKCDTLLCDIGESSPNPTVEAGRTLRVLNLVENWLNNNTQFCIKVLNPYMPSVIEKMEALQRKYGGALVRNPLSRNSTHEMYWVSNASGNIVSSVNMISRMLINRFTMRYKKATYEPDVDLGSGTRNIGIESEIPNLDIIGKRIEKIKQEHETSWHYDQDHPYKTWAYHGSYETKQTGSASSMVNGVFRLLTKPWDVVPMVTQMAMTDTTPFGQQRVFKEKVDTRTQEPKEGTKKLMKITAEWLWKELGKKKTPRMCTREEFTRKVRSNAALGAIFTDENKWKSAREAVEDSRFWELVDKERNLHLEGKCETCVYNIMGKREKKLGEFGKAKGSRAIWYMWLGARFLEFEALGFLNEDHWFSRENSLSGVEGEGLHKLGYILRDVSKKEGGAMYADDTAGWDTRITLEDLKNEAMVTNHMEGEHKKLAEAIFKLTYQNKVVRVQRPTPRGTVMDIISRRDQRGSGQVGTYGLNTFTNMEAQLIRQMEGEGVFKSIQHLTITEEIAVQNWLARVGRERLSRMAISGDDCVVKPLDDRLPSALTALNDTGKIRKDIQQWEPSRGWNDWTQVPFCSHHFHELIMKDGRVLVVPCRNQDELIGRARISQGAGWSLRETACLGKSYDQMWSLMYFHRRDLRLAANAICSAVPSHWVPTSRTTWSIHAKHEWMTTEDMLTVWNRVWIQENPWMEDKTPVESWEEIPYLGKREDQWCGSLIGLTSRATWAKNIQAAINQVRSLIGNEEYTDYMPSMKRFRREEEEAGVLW

SMILES | AC50 [2] | AC50 [3] | AC50 [7] | further results
C[C@@H]1CN([C@@H](C)CO)C(=O)c2cc(NS(=O)(=O)c3ccc(Cl)cc3)ccc2O[C@H]1CN(C)Cc1ccc(Cl)c(Cl)c1 | – | – | – | AC50 [1]: 3.37 µM (active)
COc1ccc2c3c([nH]c2c1)[C@H](CO)N(C(=O)Nc1cccc(F)c1)CC31CCN(S(=O)(=O)c2cccc(C)c2)CC1 | 5.2 µM (active) | 42.4 µM (active) | – | AC50 [4]: > 70 µM (inactive)
C[C@H](CO)N1C[C@H](C)[C@H](CN(C)C(=O)C2CC2)OCc2ccccc2-c2c(n(C)c3ccccc23)C1=O | – | – | – | AC50 [5]: 0.836 µM (active); AC50 [6]: 0.426 µM (active)
C[C@@H]1CN([C@H](C)CO)C(=O)c2cccc(NC(=O)Nc3cccc4ccccc34)c2O[C@@H]1CN(C)S(=O)(=O)c1ccc(Cl)cc1 | 5.69 µM (active) | 43.3 µM (active) | – | AC50 [4]: 56.3 µM (active)
C[C@@H]1CN([C@H](C)CO)C(=O)c2cc(NC(=O)Nc3ccc(C(F)(F)F)cc3)ccc2O[C@@H](C)CCCCO[C@H]1CN(C)S(=O)(=O)c1ccccc1 | 2.23 µM (active) | 31.8 µM (active) | – | –
C[C@H](CO)N1C[C@H](C)[C@H](CN(C)Cc2ccc(C(F)(F)F)cc2)OCCCC[C@H](C)Oc2ccc(NS(=O)(=O)c3ccc(F)cc3)cc2C1=O | 7.71 µM (active) | 53.3 µM (active) | – | AC50 [4]: 58.2 µM (active)
C[C@H](CO)N1C[C@H](C)[C@H](CN(C)Cc2ccc(C(F)(F)F)cc2)OCCCC[C@H](C)Oc2ccc(NC(=O)NC3CCCCC3)cc2C1=O | 10.1 µM (active) | 41.6 µM (active) | – | AC50 [4]: 41.7 µM (active)
CC(=O)NNc1ccccc1 | – | – | 31.6 µM (inconclusive) | –
Cc1cc(C(=O)N/N=C\c2cc(C(C)(C)C)ccc2O)[nH]n1 | – | – | – | EC50 [8]: 6.68 µM (active)
CC1CCc2c(sc(/N=C/N(C)C)c2C#N)C1 (stereo not drawn) | – | – | – | EC50 [8]: 2.99 µM (active)
CCOc1ccc(Cl)cc1/C=N/O | – | – | – | EC50 [8]: 4.22 µM (active)
Cc1ccc([N+](=O)[O-])cc1N | – | – | 31.6 µM (inconclusive) | –
N#Cc1c(N)sc(=S)c2c1CCCC2 | – | – | – | IC50 [9]: > 66 µM (inactive); IC50 [10]: 57.4 µM (inactive); IC50 [11]: 90.8 µM (active)
O=C(O)c1sccc1S(=O)(=O)Nc1ccc(Cl)cc1 | – | – | 7.94 µM (inconclusive) | –
COc1cc2cc(Oc3ccc4ccc(=O)oc4c3)c(=O)oc2cc1O [DAPHNORETIN] | – | – | 0.501 µM (inconclusive) | –
COc1c(CC=C(C)C)c2c(c3oc(=O)c(-c4ccc(O)cc4)c(O)c13)C=CC(C)(C)O2 [SCANDENIN] | – | – | 20 µM (inconclusive) | –
